From patent US12565489B2, “Heterocyclyl pyrimidines and triazines as novel fungicides” (Bayer Aktiengesellschaft, priority 2020, dated 2026)

Legend:
[1] = Measurement of Log P values by HPLC on reversed phase columns (EEC directive 79/831 Annex V.A8); type: physicochemical; conditions: LogP
How it was run: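 Calibration used straight-chain alkan-2-ones (3 to 16 carbons) of known Log P, interpolating linearly between retention times. Values come from reversed-phase LC-UV (EEC 79/831 Annex V.A8), 10% to 95% acetonitrile gradient against 0.1% formic acid, 0.001 molar ammonium acetate, or 0.1% phosphoric acid.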

Botrytis cinerea = Botrytis cinerea in vitro cell test; type: cell-based; conditions: 144 h, 20 ppm of active ingredient, 6 days incubation, liquid culture, spectrometric measurement of mycelium growth, read-out: efficacy (inhibition of fungal growth)
Method: • Solvent: DMSO • Culture medium: 1 g KH2PO4 (VWR), 1 g K2HPO4 (VWR), 0.5 g Urea (VWR), 3 g KNO3 (Prolabo), 10 g saccharose (VWR), 0.5 g MgSO4, 7H2O (Sigma), 0.07 g CaCl2, 2H2O (Prolabo), 0.2 mg MnSO4, H2O (Sigma), 0.6 mg CuSO4, 5H2O (Sigma), 7.9 mg ZnSO4, 7H2O (Sigma), 0.1 mg H3BO3 (Merck), 0.14 mg NaMoO4, 2H2O (Sigma), 2 mg thiamine (Sigma), 0.1 mg biotine (VWR), 4 mg FeSO4, 7H2O (Sigma), QSP 1 liter • Inoculum: spore suspension Fungicides were solubilized in DMSO and the solution used to prepare the required range of concentrations. […] A spore suspension of B. cinerea was prepared and diluted to the desired spore density. Fungicides were evaluated for their ability to inhibit spore germination and mycelium growth in liquid culture assay. The compounds were added in the desired concentration to the culture medium with spores. After 6 days incubation, fungi-toxicity of compounds was determined by spectrometric measurement of mycelium growth. Inhibition of fungal growth was determined by comparing the absorbance values in wells containing the fungicides with the absorbance in control wells without fungicides.

Sphaerotheca fuliginea = assay: In vivo preventive test on Sphaerotheca fuliginea (powdery mildew on cucurbits); conditions: Podosphaera fuliginea, 192 h; 500 ppm of active ingredient; preventive spray on young gherkin plants; evaluated 8 days after inoculation; read-out: efficacy
Method: The active ingredients were made soluble and homogenized in a mixture of Dimethyl sulfoxide/Acetone//Tween®80 and then diluted in water to the desired concentration. The young plants of gherkin were treated by spraying the active ingredient prepared as described above. Control plants were treated only with an aqueous solution of Acetone/Dimethyl sulfoxide/Tween® 80. After 24 hours, the plants were contaminated by spraying the leaves with an aqueous suspension of Sphaerotheca fuliginea spores.

For `C=Cc1cccc(Oc2cnc(C)nc2C2=NOC[C@@H](Cc3ccc(C)cc3C)N2)c1` (racemic) [Compound I-019], which chromatographic logP [1] is on record?
Its chromatographic logP is 4.09.

What about the inhibition at 20 ppm (Botrytis cinerea) of the same compound?
The inhibition at 20 ppm was 90 to 100%.

What about the pest or weed control at 500 ppm (Sphaerotheca fuliginea) of the same compound?
The pest or weed control at 500 ppm was 80 to 89%.

What does the source list for `Cc1ccc(C[C@@H]2CON=C(c3nc(C)ncc3Oc3cccc(Br)c3)N2)c(C)c1` (racemic) [Compound I-009]?
chromatographic logP [1]: 4.44; inhibition at 20 ppm (Botrytis cinerea): 90 to 100%; pest or weed control at 500 ppm (Sphaerotheca fuliginea): 90 to 100%

For `C=Cc1ccc(C[C@@H]2CON=C(c3nc(C)ncc3Oc3cccc(C(F)(F)F)c3)N2)c(C)c1` (racemic) [Compound I-006], which chromatographic logP [1] is on record?
Its chromatographic logP is 4.44.

What about the inhibition at 20 ppm (Botrytis cinerea) of the same compound?
Its inhibition at 20 ppm is 90 to 100%.

And the pest or weed control at 500 ppm (Sphaerotheca fuliginea)?
The pest or weed control at 500 ppm was 90 to 100%.

With `Cc1ccc(C[C@@H]2CON=C(c3nc(C)ncc3Oc3cccc(Cl)c3)N2)c(Cl)c1` (racemic) [Compound I-018] as the compound, how does the chromatographic logP [1] read?
The chromatographic logP was 4.22.

What about the inhibition at 20 ppm (Botrytis cinerea) of the same compound?
The inhibition at 20 ppm was 90 to 100%.

What about the pest or weed control at 500 ppm (Sphaerotheca fuliginea) of the same compound?
The pest or weed control at 500 ppm was 90 to 100%.

Which chromatographic logP [1] does the source give for `Cc1ccc(C[C@@H]2CON=C(c3nc(C)ncc3Oc3cccc(C(F)(F)F)c3)N2)c(Cl)c1` (racemic) [Compound I-013] here?
The chromatographic logP was 4.47.

And the inhibition at 20 ppm (Botrytis cinerea)?
Its inhibition at 20 ppm is 90 to 100%.

And the pest or weed control at 500 ppm (Sphaerotheca fuliginea)?
Its pest or weed control at 500 ppm is 90 to 100%.

With `Cc1ccc(C[C@@H]2CON=C(c3nc(C)ncc3Oc3cccc(C4CC4)c3)N2)c(C)c1` (racemic) [Compound I-024] as the compound, how does the chromatographic logP [1] read?
Its chromatographic logP is 4.55.

And the inhibition at 20 ppm (Botrytis cinerea)?
The inhibition at 20 ppm was 90 to 100%.

What about the pest or weed control at 500 ppm (Sphaerotheca fuliginea) of the same compound?
Its pest or weed control at 500 ppm is 90 to 100%.

Which chromatographic logP [1] does the source give for `Cc1ccc(C[C@@H]2CON=C(c3nc(C)ncc3Oc3cccc(Cl)c3)N2)c(C)c1` (racemic) [Compound I-023] here?
Its chromatographic logP is 4.15.

And the inhibition at 20 ppm (Botrytis cinerea)?
The inhibition at 20 ppm was 90 to 100%.

And the pest or weed control at 500 ppm (Sphaerotheca fuliginea)?
Its pest or weed control at 500 ppm is 90 to 100%.

What does the source list for `C#Cc1ccc(CC2CON=C(c3nc(C)ncc3Oc3cccc(C(F)(F)F)c3)N2)c(C)c1` (racemic) [Compound I-026, (5RS)-5-[(4-ethynyl-2-methyl-phenyl)methyl]-3-[2-methyl-5-[3-(trifluoromethyl)phenoxy]pyrimidin-4-yl]-5,6-dihydro-4H-1,2,4-oxadiazine]?
chromatographic logP [1]: 3.99; inhibition at 20 ppm (Botrytis cinerea): 90 to 100%; pest or weed control at 500 ppm (Sphaerotheca fuliginea): 90 to 100%

Which results are given for `Cc1cccc(Oc2cnc(C)nc2C2=NOC[C@@H](Cc3ccc(C)cc3C)N2)c1` (racemic) [Compound I-004]?
chromatographic logP [1]: 3.95; inhibition at 20 ppm (Botrytis cinerea): 90 to 100%; pest or weed control at 500 ppm (Sphaerotheca fuliginea): 90 to 100%

With `CSc1ncc(Oc2cccc(C(F)(F)F)c2)c(C2=NOC[C@@H](Cc3ccc(C)cc3C)N2)n1` (racemic) [Compound I-017] as the compound, how does the chromatographic logP [1] read?
The chromatographic logP was 5.09.

And the inhibition at 20 ppm (Botrytis cinerea)?
The inhibition at 20 ppm was 90 to 100%.

What about the pest or weed control at 500 ppm (Sphaerotheca fuliginea) of the same compound?
The pest or weed control at 500 ppm was 90 to 100%.

What does the source list for `Cc1ncc(Oc2cccc(C(F)(F)F)c2)c(C2=NOC[C@@H](Cc3ccc(C(F)F)cc3Cl)N2)n1` (racemic) [Compound I-033]?
chromatographic logP [1]: 4.02; inhibition at 20 ppm (Botrytis cinerea): 90 to 100%; pest or weed control at 500 ppm (Sphaerotheca fuliginea): 90 to 100%

For `Cc1ncc(Oc2cccc(C(F)(F)F)c2)c(C2=NOC[C@@H](Cc3ccc(SC(F)(F)F)cc3)N2)n1` (racemic) [Compound I-030], which chromatographic logP [1] is on record?
Its chromatographic logP is 4.62.

What about the inhibition at 20 ppm (Botrytis cinerea) of the same compound?
The inhibition at 20 ppm was 90 to 100%.

And the pest or weed control at 500 ppm (Sphaerotheca fuliginea)?
Its pest or weed control at 500 ppm is 90 to 100%.

What does the source list for `Cc1ccc(C[C@@H]2CON=C(c3nc(C)ncc3Oc3cccc(C4CC4)c3F)N2)c(C)c1` (racemic) [Compound I-016]?
chromatographic logP [1]: 4.41; inhibition at 20 ppm (Botrytis cinerea): 90 to 100%; pest or weed control at 500 ppm (Sphaerotheca fuliginea): 90 to 100%

For `Cc1ccc(C[C@@H]2CON=C(c3nc(C)ncc3Oc3cccc(C4CC4)c3F)N2)c(Cl)c1` (racemic) [Compound I-008], which chromatographic logP [1] is on record?
The chromatographic logP was 4.49.

What about the inhibition at 20 ppm (Botrytis cinerea) of the same compound?
The inhibition at 20 ppm was 90 to 100%.

And the pest or weed control at 500 ppm (Sphaerotheca fuliginea)?
The pest or weed control at 500 ppm was 90 to 100%.

For `C#Cc1cccc(Oc2cnc(C)nc2C2=NOC[C@@H](Cc3ccc(C)cc3C)N2)c1` (racemic) [Compound I-025], which chromatographic logP [1] is on record?
The chromatographic logP was 3.85.

And the inhibition at 20 ppm (Botrytis cinerea)?
The inhibition at 20 ppm was 90 to 100%.

And the pest or weed control at 500 ppm (Sphaerotheca fuliginea)?
Its pest or weed control at 500 ppm is 90 to 100%.

For `Cc1ncc(Oc2cccc(C(F)(F)F)c2)c(C2=NOCC(Cc3ccc(C4CC4)cc3C)N2)n1` (racemic) [Compound I-029, (5RS)-5-[(4-cyclopropyl-2-methyl-phenyl)methyl]-3-[2-methyl-5-[3-(trifluoromethyl)phenoxy]pyrimidin-4-yl]-5,6-dihydro-4H-1,2,4-oxadiazine], which chromatographic logP [1] is on record?
Its chromatographic logP is 4.7.

And the inhibition at 20 ppm (Botrytis cinerea)?
The inhibition at 20 ppm was 90 to 100%.

What about the pest or weed control at 500 ppm (Sphaerotheca fuliginea) of the same compound?
Its pest or weed control at 500 ppm is 90 to 100%.

Which chromatographic logP [1] does the source give for `COc1cccc(Oc2cnc(C)nc2C2=NOC[C@@H](Cc3ccc(C)cc3C)N2)c1` (racemic) [Compound I-032] here?
The chromatographic logP was 3.66.

What about the inhibition at 20 ppm (Botrytis cinerea) of the same compound?
Its inhibition at 20 ppm is 90 to 100%.

And the pest or weed control at 500 ppm (Sphaerotheca fuliginea)?
Its pest or weed control at 500 ppm is 90 to 100%.

With `Cc1ccc(CC2CON=C(c3nc(C)ncc3Oc3cccc(C(F)(F)F)c3)N2)c(C)c1` (racemic) [Compound I-002, (5RS)-5-(2,4-dimethylbenzyl)-3-{2-methyl-5-[3-(trifluoro-methyl)phenoxy]pyrimidin-4-yl}-5,6-dihydro-4H-1,2,4-oxadiazine] as the compound, how does the chromatographic logP [1] read?
Its chromatographic logP is 4.33.

And the inhibition at 20 ppm (Botrytis cinerea)?
The inhibition at 20 ppm was 90 to 100%.

And the pest or weed control at 500 ppm (Sphaerotheca fuliginea)?
Its pest or weed control at 500 ppm is 90 to 100%.

With `Cc1ccc(CC2CON=C(c3nc(C4CC4)ncc3Oc3cccc(C(F)(F)F)c3)N2)c(C)c1` (racemic) [Compound I-001, (5RS)-3-{2-cyclopropyl-5-[3-(trifluoro-methyl)phenoxy]pyrimidin-4-yl}-5-(2,4-dimethylbenzyl)-5,6-dihydro-4H-1,2,4-oxadiazine] as the compound, how does the chromatographic logP [1] read?
Its chromatographic logP is 5.16.

What about the inhibition at 20 ppm (Botrytis cinerea) of the same compound?
The inhibition at 20 ppm was 90 to 100%.

And the pest or weed control at 500 ppm (Sphaerotheca fuliginea)?
The pest or weed control at 500 ppm was 90 to 100%.

Which chromatographic logP [1] does the source give for `Cc1ccc(C[C@@H]2CON=C(c3nc(C)ncc3Oc3cccc(Cl)c3F)N2)c(Cl)c1` (racemic) [Compound I-005] here?
Its chromatographic logP is 4.19.

What about the inhibition at 20 ppm (Botrytis cinerea) of the same compound?
Its inhibition at 20 ppm is 90 to 100%.

What about the pest or weed control at 500 ppm (Sphaerotheca fuliginea) of the same compound?
The pest or weed control at 500 ppm was 90 to 100%.

What does the source list for `Cc1ncc(Oc2cccc(C(F)(F)F)c2)c(C2=NOCC(Cc3ccc(Br)cc3C)N2)n1` (racemic) [Compound I-021, (5RS)-5-[(4-bromo-2-methyl-phenyl)methyl]-3-[2-methyl-5-[3-(trifluoro-methyl)phenoxy]pyrimidin-4-yl]-5,6-dihydro-4H-1,2,4-oxadiazine]?
chromatographic logP [1]: 4.48; inhibition at 20 ppm (Botrytis cinerea): 90 to 100%; pest or weed control at 500 ppm (Sphaerotheca fuliginea): 90 to 100%
